Reference: PMC2248166, “Quantitative peptide binding motifs for 19 human and mouse MHC class I molecules derived using positional scanning combinatorial peptide libraries” (Immunome Research, 2008)

Legend:
[1] = biological target: HLA A*3001 (Homo sapiens, UniProt P04439, D140H/D185E/E176W/F33S/G80R/H175R/K168Q/R138E/R41S); experiment: biochemical; format: binding
[2] = biological target: HLA A*3201 (Homo sapiens, UniProt P04439, A270S/D101S/D185E/E176V/E277Q/F133L/G103R/G107R/G231S/H175R/I121M/I218V/I322F/K168Q/L105A/L300P/L318F/M331R/P208A/P217A/Q94H/R106L/R138Q/S129P/T104I/T323A/T345S/V100E/V321M/V358M); experiment: biochemical; format: binding
[3] = biological target: HLA A*6802 (Homo sapiens, UniProt P04439, A269V/D140Y/D185E/E176V/E277Q/E87N/F33Y/G231S/I121R/I166T/I218V/L180W/L300P/L318F/N151K/P208A/P217A/Q86R/R138H/R169H/S129P/T345S/V36M); format: binding
[4] = biological target: HLA B*0702 (Homo sapiens, UniProt P01889); format: binding; conditions: positional scanning combinatorial 9-mer library; normalized to 1.0 for the best residue at each position
[5] = biological target: HLA B*0801 (Homo sapiens, UniProt P01889, A93T/A95T/D138N/E176V/E187T/K202T/Q94N/R180D/S35A/V36M/Y33D/Y91F); experiment: biochemical; format: binding
[6] = biological target: HLA B*1501 (Homo sapiens, UniProt P01889, A329T/A93T/A95T/C349S/D201E/D98Y/E187L/E204Q/E69M/E70A/K202T/N87E/Q94N/R155S/R180W/S121R/S35A/S48A/V306I/V36M/Y140S/Y91S); experiment: biochemical; format: binding
[7] = biological target: HLA B*1503 (Homo sapiens, UniProt P01889, A329T/A93T/A95T/C349S/D201E/D98Y/E187L/E204Q/K202T/N87E/Q94N/R155S/R180L/S121R/S35A/V306I/V36M/Y140S/Y91S); experiment: biochemical; format: binding
[8] = biological target: HLA B*2705 (Homo sapiens, UniProt P01889, D138H/D201E/E176V/E204Q/G107R/H137Y/K202T/N104T/N87E/Q56L/Q94K/R106L/R155S/R180L/S101D/S121N/S48T/Y140D/Y33H/Y91C); format: binding; conditions: positional scanning combinatorial 9-mer library; normalized to 1.0 for the best residue at each position
[9] = biological target: HLA B*3501 (Homo sapiens, UniProt P01889, A329T/A93T/A95T/C349S/D201E/D98Y/E176V/E187L/E204Q/E69T/I218V/K202T/L119I/Q94N/R155S/R180L/S121R/S35A/S48A/T118I/V127L/V306I/V36M/Y140S/Y91F); format: binding
[10] = biological target: HLA B*5101 (Homo sapiens, UniProt P01889, A329T/A93T/A95T/C349S/D138N/D201E/D98Y/E187L/E204Q/E69T/G107R/I218V/K202T/L105A/L119W/N104I/Q94N/R106L/R155S/R180L/S101N/S121T/S35A/S48A/V306I/V36M/Y195H/Y91F); format: binding
[11] = biological target: HLA B*5301 (Homo sapiens, UniProt P01889, A329T/A93T/A95T/C349S/D201E/D98Y/E176V/E187L/E204Q/E69T/G107R/I218V/K202T/L105A/L119I/N104I/Q94N/R106L/R155S/R180L/S101N/S121R/S35A/S48A/T118I/V127L/V306I/V36M/Y140S/Y91F); format: binding
[12] = biological target: HLA B*5401 (Homo sapiens, UniProt P01889, A329T/C349S/D138N/D201E/E176V/E187T/E204Q/E69G/I76V/K202T/L119W/R155S/R180L/S121T/S35A/S48A/V127L/V306I/V36M/Y140L); format: binding
[13] = biological target: HLA B*5801 (Homo sapiens, UniProt P01889, A329T/C349S/D201E/D98Y/E176V/E187L/E204Q/E69T/G107R/I218V/I90N/K202T/L105A/L119I/N104I/N87E/Q89R/Q94S/R106L/R155S/R180L/R86G/S101N/S121R/S35A/S48A/T118I/V127L/V306I/V36M/Y140S/Y91M); format: binding
[14] = biological target: HLA B*5802 (Homo sapiens, UniProt P01889, A329T/C349S/D201E/D98Y/E176V/E187L/E204Q/E69T/G107R/I218V/I90N/K202T/L105A/N104I/N87E/Q89R/Q94S/R106L/R155S/R180L/R86G/S101N/S121W/S35A/S48A/V127L/V306I/V36M/Y140S/Y91M); format: binding
[15] = biological target: H-2 D^b (Mus musculus, UniProt P01899); format: binding
Sequence of H-2 D^b (P01887 21-119): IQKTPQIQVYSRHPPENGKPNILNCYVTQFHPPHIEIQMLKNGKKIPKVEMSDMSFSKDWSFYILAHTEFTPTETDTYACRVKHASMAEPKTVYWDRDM
Sequence of H-2 D^b (P01899 25-362): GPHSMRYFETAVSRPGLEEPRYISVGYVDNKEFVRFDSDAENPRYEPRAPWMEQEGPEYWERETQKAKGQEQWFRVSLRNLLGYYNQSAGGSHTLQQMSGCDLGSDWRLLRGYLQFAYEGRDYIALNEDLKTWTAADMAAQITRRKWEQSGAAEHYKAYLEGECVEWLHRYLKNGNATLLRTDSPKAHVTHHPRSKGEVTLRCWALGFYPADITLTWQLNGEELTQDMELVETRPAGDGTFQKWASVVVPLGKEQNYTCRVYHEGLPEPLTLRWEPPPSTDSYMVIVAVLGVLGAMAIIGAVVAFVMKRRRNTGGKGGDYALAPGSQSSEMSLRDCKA

[16] = biological target: H-2 D^d (Mus musculus, UniProt P01900); format: binding
Sequence of H-2 D^d (P01900 whole entry, looked up): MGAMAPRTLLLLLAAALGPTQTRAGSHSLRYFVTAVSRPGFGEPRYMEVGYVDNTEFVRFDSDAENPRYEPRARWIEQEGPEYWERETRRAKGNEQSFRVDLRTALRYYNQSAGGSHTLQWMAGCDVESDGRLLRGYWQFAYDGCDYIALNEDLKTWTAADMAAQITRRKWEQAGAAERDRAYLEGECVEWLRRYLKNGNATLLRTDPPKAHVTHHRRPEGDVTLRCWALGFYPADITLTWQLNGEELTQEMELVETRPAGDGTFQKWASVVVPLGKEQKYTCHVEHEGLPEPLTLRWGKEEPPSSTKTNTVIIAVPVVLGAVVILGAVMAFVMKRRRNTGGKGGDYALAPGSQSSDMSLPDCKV

[17] = biological target: H-2 K^k (Mus musculus, UniProt P04223); format: binding
Sequence of H-2 K^k (P01887 21-119): as the sequence (P01887 21-119) above
Sequence of H-2 K^k (P04223 22-369): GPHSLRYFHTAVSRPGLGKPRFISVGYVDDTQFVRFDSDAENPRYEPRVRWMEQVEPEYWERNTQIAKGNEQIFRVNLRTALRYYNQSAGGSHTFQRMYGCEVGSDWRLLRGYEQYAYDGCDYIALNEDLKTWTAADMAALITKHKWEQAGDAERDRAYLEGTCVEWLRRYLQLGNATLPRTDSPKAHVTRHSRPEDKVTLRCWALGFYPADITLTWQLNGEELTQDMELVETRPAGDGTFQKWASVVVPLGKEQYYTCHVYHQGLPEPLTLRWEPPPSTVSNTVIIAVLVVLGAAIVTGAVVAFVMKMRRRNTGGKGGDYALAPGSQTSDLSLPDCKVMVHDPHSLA

[18] = biological target: HLA A*0201 (Homo sapiens, UniProt P04439, D140Y/D185E/D98H/E176V/E277Q/G131W/G231S/I119V/I121R/I166T/I218V/L300P/L318F/N151K/N90K/P208A/P217A/Q86G/Q94H/R138H/R169H/T345S); conditions: positional scanning combinatorial 9-mer library; normalized to 1.0 for the best residue at each position
[19] = biological target: H-2 K^d (Mus musculus, UniProt P01902); format: binding
Sequence of H-2 K^d (P01887 21-119): as the sequence (P01887 21-119) above
Sequence of H-2 K^d (P01902 22-368): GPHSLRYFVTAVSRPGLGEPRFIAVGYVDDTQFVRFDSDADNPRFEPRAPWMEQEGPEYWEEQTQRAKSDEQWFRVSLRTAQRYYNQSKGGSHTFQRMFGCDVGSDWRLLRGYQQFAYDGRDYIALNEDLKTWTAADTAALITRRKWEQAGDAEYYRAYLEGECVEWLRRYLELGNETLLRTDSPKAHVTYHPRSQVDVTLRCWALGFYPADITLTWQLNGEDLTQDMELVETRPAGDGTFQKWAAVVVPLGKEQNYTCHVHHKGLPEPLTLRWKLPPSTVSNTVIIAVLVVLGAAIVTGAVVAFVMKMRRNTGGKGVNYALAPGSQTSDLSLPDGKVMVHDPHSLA

| Sequence | Normalized average relative binding affinity(ARB) [1] | Normalized average relative binding affinity(ARB) [2] | Normalized average relative binding affinity(ARB) [3] | Normalized average relative binding affinity(ARB) [5] | Normalized average relative binding affinity(ARB) [6] | Normalized average relative binding affinity(ARB) [7] | Normalized average relative binding affinity(ARB) [9] | Normalized average relative binding affinity(ARB) [10] | Normalized average relative binding affinity(ARB) [11] | Normalized average relative binding affinity(ARB) [12] | Normalized average relative binding affinity(ARB) [13] | Normalized average relative binding affinity(ARB) [14] | Normalized average relative binding affinity(ARB) [15] | Normalized average relative binding affinity(ARB) [16] | Normalized average relative binding affinity(ARB) [19] | Normalized average relative binding affinity(ARB) [17] | other results |
| --- | --- | --- | --- | --- | --- | --- | --- | --- | --- | --- | --- | --- | --- | --- | --- | --- | --- |
| XXIXXXXXX [3064.0048] | – | – | – | – | – | – | – | – | – | – | – | – | – | – | – | – | Normalized average relative binding affinity (ARB), HLA A*3001 [1]: 0.020; Normalized average relative binding affinity (ARB), HLA A*3201 [2]: 0.60; Normalized average relative binding affinity (ARB), HLA A*6802 [3]: 0.38; Normalized average relative binding affinity (ARB), HLA B*0702 [4]: 0.12; Normalized average relative binding affinity (ARB), HLA B*0801 [5]: 0.15; Normalized average relative binding affinity (ARB), HLA B*1501 [6]: 1.0; Normalized average relative binding affinity (ARB), HLA B*1503 [7]: 0.17; Normalized average relative binding affinity (ARB), HLA B*2705 [8]: 0.22; Normalized average relative binding affinity (ARB), HLA B*3501 [9]: 0.16; Normalized average relative binding affinity (ARB), HLA B*5101 [10]: 0.39; Normalized average relative binding affinity (ARB), HLA B*5301 [11]: 0.26; Normalized average relative binding affinity (ARB), HLA B*5401 [12]: 0.083; Normalized average relative binding affinity (ARB), HLA B*5801 [13]: 0.77; Normalized average relative binding affinity (ARB), HLA B*5802 [14]: 1.0; Normalized average relative binding affinity (ARB), H-2 Db [15]: 0.24; Normalized average relative binding affinity (ARB), H-2 Dd [16]: 0.0041; Normalized average relative binding affinity (ARB), H-2 Kk [17]: 0.26; Normalized average relative binding affinity (ARB), HLA A*0201 [18]: 0.54 |
| XXXKXXXXX [3064.0069] | 0.32 | 0.39 | 0.095 | 0.52 | 0.43 | 0.30 | 0.097 | 0.90 | 0.12 | 0.42 | 0.44 | 0.55 | 0.43 | 0.39 | 0.23 | 0.26 | – |
| XXXXXYXXX [3064.0120] | 0.21 | 0.38 | 0.43 | 0.0094 | 0.20 | 0.40 | 0.061 | 0.097 | 1.0 | 0.19 | 1.0 | 0.64 | 0.68 | 0.83 | 0.26 | 0.35 | – |
